The values that follow come from the METLIN SMRT retention time set (Domingo-Almenara et al. 2019).

A short description of the data set: gradient 5% acetonitrile 3 min, to 50% in 2 min, to 85% in 15 min, held 3 min, 100 µL/min. The note with it: column: Zorbax Extend-C18 2.1 x 50 mm; eluents: water / acetonitrile, 0.1% formic acid. In short, it runs like this:
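A Zorbax Extend-C18 column (2.1 × 50 mm, 1.8 μm) run at 100 μL/min with water and acetonitrile, both containing 0.1% formic acid, separated mixtures of ~100 pure standards. The HPLC was coupled to a quadrupole time-of-flight mass spectrometer operated in positive and negative ionization mode, with dead and dwell volumes of 40 μL and 900 μL. Each retention time was taken from a computationally picked adduct peak that was then manually inspected.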
Regarding `CCC(=O)N1CCC2(CC1)CC1C(=O)N(CC)C(=O)N1C2` (centres undefined), the RP-LC retention time was found to be 626 s.

In turn, `COc1ccc(N2C=C(C(=O)N3CCOCC3)S(=O)(=O)c3ccc(F)cc32)cc1` gave an RP-LC retention time of 778 s.

Molecule `Cc1ccc(Nc2c(-c3ccc(Br)cc3)nc3cnccn23)c(C)c1` returned an RP-LC retention time of 1170 s.

In the case of `Cc1nncn1C1CN(C(=O)Nc2ccc(Cl)cc2C(F)(F)F)C1`, the RP-LC retention time was determined as 662 s.

Molecule `O=C1C(O)C2(CCCCC2)N1C1CCN(Cc2ccc(F)c(F)c2)CC1` (centres undefined) showed an RP-LC retention time of 548 s.

Take `Cc1cc(C)cc(Nc2c(-c3ccc(N4CCOCC4)cc3)nc3ncccn23)c1`: the RP-LC retention time worked out at 719 s.

`CCc1ccc(-n2nc(N3CCCC(C(=O)NCc4cccc(Br)c4)C3)ccc2=O)cc1` (centres undefined): the RP-LC retention time amounted to 991 s.

Turning to `O=C(NC1CC1)c1ccc(OCC2CCCN(C(=O)c3c(F)cccc3F)C2)cc1` (centres undefined), the RP-LC retention time was determined as 820 s.

With `Cn1c(=O)n([C@H]2CCN(C(=O)c3ccc(Cn4ccnc4)o3)C2)c2ncccc21`, the RP-LC retention time stood at 573 s.

`Cc1cc(C)cc(NC(=O)C2CC(=O)N(CCc3c[nH]c4ccc(C)cc34)C2)c1` (centres undefined) gave an RP-LC retention time of 923 s.

`COc1ccc(CNC(=O)C2CCN(Cc3cn(C)c4ccc(OC)cc34)CC2)c(OC)c1` returned an RP-LC retention time of 672 s.

Molecule `Cc1nnc(-c2ccc3ccn(CC(=O)N4CCC5(CC4)OCCO5)c3c2)o1` returned an RP-LC retention time of 673 s.

In turn, `CCC1Oc2ccc(S(=O)(=O)N3CCC(C(=O)NCCc4ccccc4)CC3)cc2NC1=O` (centres undefined) came in with an RP-LC retention time of 872 s.

With `c1ccc(-n2ccnc2SCc2nc(-c3ccc4c(c3)OCO4)no2)cc1`, the RP-LC retention time worked out at 790 s.

As for `O=C(NC1CCN(C(=O)c2cc(-c3cccs3)[nH]n2)CC1)C1CCCCC1`, the RP-LC retention time was 722 s.

Take `O=C(c1cc(-c2cccs2)[nH]n1)N1CCN(c2ccccn2)CC1`: the RP-LC retention time turned out to be 596 s.

Consider `CCCc1noc(-c2cccnc2-n2cnc(C(=O)Nc3cc(C)cc(C)c3)c2)n1`, for which the RP-LC retention time was 1040 s.

In turn, `Cc1ncc([N+](=O)[O-])n1CCOC(=O)c1ccc(F)cc1` yielded an RP-LC retention time of 732 s.

`CCCN(C(=O)CC)c1nc(-c2ccc(C)cc2)cs1` registered an RP-LC retention time of 1330 s.

For `CC(=O)N1CCc2cc(N3CC(C(=O)Nc4ccc(C)cc4)CC3=O)ccc21` (centres undefined), the RP-LC retention time is 720 s.

As to `Cc1oc2ccn(Cc3ccccc3F)c(=O)c2c1C(=O)NCC1CCCO1` (centres undefined), the RP-LC retention time was found to be 891 s.

`CCOC(=O)C1=C(CN2CCC(N3CCCCC3)CC2)NC(=O)NC1c1ccc(Cl)cc1` (centres undefined) returned an RP-LC retention time of 599 s.

The molecule `O=C(NCc1nc(-c2ccc3c(c2)Sc2ccccc2C(=O)N3C2CC2)no1)c1cccs1` had an RP-LC retention time of 928 s.

The molecule `CN(C)C(=O)c1ccc(-n2nc(C(F)(F)F)c3c2CCCC3)cc1` returned an RP-LC retention time of 882 s.

Turning to `O=C(NCc1ccccc1F)C1CCN(C(=O)c2ncn3c2COC(c2ccc(Cl)cc2)C3)CC1` (centres undefined), the RP-LC retention time stood at 819 s.

For the molecule `CN(C)CCN(C)CCc1ccc(Cl)c(Cl)c1`, the RP-LC retention time stood at 639 s.

`CN(C)CCNC(=O)c1cc(S(=O)(=O)N2CCOCC2)ccc1Cl` came in with an RP-LC retention time of 563 s.

`Cc1cccc(NS(=O)(=O)c2cc3n(c2)CCCN(C)C3=O)c1C` had an RP-LC retention time of 711 s.

In turn, `Cc1ccc2[nH]cc(CCNC(=O)C(C)n3c4ccccc4c4cnn(C)c(=O)c43)c2c1` (centres undefined) registered an RP-LC retention time of 906 s.

`O=C(c1cc(Br)ccc1Cl)N1CCN(c2ccc(-n3ccnc3)nn2)CC1` returned an RP-LC retention time of 575 s.

Take `COc1cc(C2C(C(=O)N3CCCC3)CCC(=O)N2c2ccc3c(c2)OCO3)cc(OC)c1OC` (centres undefined): the RP-LC retention time amounted to 665 s.

Turning to `COc1ccc(C2C(C(=O)NCCN3CCOCC3)c3cc(OC)c(OC)cc3C(=O)N2C)cc1` (centres undefined), the RP-LC retention time is 610 s.

Regarding `O=C(c1ccc2cc[nH]c2c1)N1C[C@@H]2C[C@H]1C[C@@H]2NS(=O)(=O)c1ccccc1`, the RP-LC retention time was found to be 766 s.

Consider `O=C(NCCCN1CCCCC1)C1CCN(c2nc3cccnc3s2)CC1`, for which the RP-LC retention time is 577 s.

Molecule `CCc1noc(NC(C)=O)c1-c1ccc(C)c(S(=O)(=O)NCCc2ccccc2)c1` showed an RP-LC retention time of 855 s.

On to `CCCn1cc(S(=O)(=O)Nc2ccc(F)cc2C)c2cccnc21`, for which the RP-LC retention time came out at 926 s.

Take `O=C(NCCn1ncccc1=O)Nc1ccc(OC(F)(F)F)cc1`: the RP-LC retention time was found to be 674 s.

Take `CCCNC(=O)C1(CCO)CCN(c2ncccn2)C1` (centres undefined): the RP-LC retention time came out at 560 s.

Take `CC(=O)Nc1ccc(SCC(=O)N(C(C)C)C(C)C)nn1`: the RP-LC retention time came out at 675 s.

`CC(=O)N1CCc2ccccc2C1C(=O)N1CCN(c2ccc(F)cc2)CC1` (centres undefined) came in with an RP-LC retention time of 576 s.

`O=C(c1ccsc1)N1CCN(c2nnc3ccc(C(F)(F)F)cn23)CC1` displayed an RP-LC retention time of 718 s.

For `CCOc1ccc2c(n1)CCN(C(=O)Nc1ccc(C)c(C)c1)C2`, the RP-LC retention time is 900 s.

Molecule `O=C(Nc1nccs1)c1cc(N2C(=O)C3C4CCC(C4)C3C2=O)ccc1Cl` (centres undefined) displayed an RP-LC retention time of 742 s.

For the molecule `Cc1csc(-c2cc(S(=O)(=O)NCCc3ccc(S(N)(=O)=O)cc3)c(C)n2C)n1`, the RP-LC retention time worked out at 769 s.

Regarding `COCCN1C(=O)CCc2cc(NS(=O)(=O)c3ccccc3Br)ccc21`, the RP-LC retention time amounted to 763 s.

In the case of `CC(C)(C)C(=O)N1CCC(C(=O)NCc2ccc3c(c2)OCO3)CC1`, the RP-LC retention time was found to be 712 s.

Take `COCC(=O)N[C@@H]1CN(C2CCCCCC2)CC[C@@H]1CO`: the RP-LC retention time is 561 s.

As to `CCn1c(C(=O)NCCc2ccc(OC)c(OC)c2)cc2sc(Cl)cc21`, the RP-LC retention time was 1030 s.

Consider `O=C1CCCN1c1ccc(Cn2nc3ccc(-c4ccc(Cl)cc4)nn3c2=O)cc1`, for which the RP-LC retention time was 742 s.

In the case of `COc1cccc(C(=O)Nc2nc(-c3ccc4c(c3)NC(=O)CO4)c(C)s2)c1`, the RP-LC retention time worked out at 877 s.

The molecule `COc1cc(CN(CC2CCCO2)C(=O)c2ccc(F)cc2)cc(OC)c1OC` (centres undefined) returned an RP-LC retention time of 834 s.

`O=C(NCCN1CCCCC1)c1cc2c(s1)CCN(C(=O)c1ccc(Cl)cc1)C2` showed an RP-LC retention time of 650 s.

Consider `CN1C(=O)COc2ccc(-c3csc(NC(=O)C(C)(C)C)n3)cc21`, for which the RP-LC retention time is 856 s.

For `NC(=O)C(=O)c1cn(Cc2ccc(F)cc2)c2ccccc12`, the RP-LC retention time was determined as 811 s.

Turning to `C=CCc1cc(OC)ccc1OCC(O)CN1CCN(C(=O)OCC)CC1` (centres undefined), the RP-LC retention time came out at 592 s.

For `CCOc1ccc(-c2c(C)nn3c(C)c(C(=O)NCCCN4CCCC4=O)cnc23)cc1OCC`, the RP-LC retention time came to 744 s.

Molecule `CN(C)C[C@@H]1CN(C2CCOCC2)C[C@H]1NS(=O)(=O)c1ccc(C#N)cc1` registered an RP-LC retention time of 524 s.

The molecule `COc1ccc(-c2csc3c(=O)n(Cc4ccccn4)cnc23)cc1` came in with an RP-LC retention time of 815 s.

`CC(C)c1ccc(Nc2c(-c3cc(Br)ccc3O)nc3ncccn23)cc1`: the RP-LC retention time came out at 1190 s.
